Measurements taken from patent US10738101B2, “Method for selecting odor-controlling substance” (Kao Corporation, priority 2015, dated 2020).

Tests used:
[1] = target: T1, OR9Q2 (Homo sapiens, UniProt Q8NGE9); test: Luciferase reporter gene assay, OR9Q2-expressing HEK293 cells; format: cell-based; conditions: FIG. 2, 5B, 5C
T1 construct: expressed in transfected cells; host or cells: HEK293
T1 sequence (Q8NGE9 1-314): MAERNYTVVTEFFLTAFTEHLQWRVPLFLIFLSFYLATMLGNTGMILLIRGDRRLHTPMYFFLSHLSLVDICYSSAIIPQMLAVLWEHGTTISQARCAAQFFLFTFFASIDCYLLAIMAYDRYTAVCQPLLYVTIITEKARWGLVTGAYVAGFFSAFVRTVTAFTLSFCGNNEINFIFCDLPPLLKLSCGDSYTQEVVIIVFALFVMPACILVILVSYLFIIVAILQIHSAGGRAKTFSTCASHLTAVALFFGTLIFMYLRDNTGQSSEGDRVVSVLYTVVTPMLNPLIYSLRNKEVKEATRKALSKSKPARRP
Excerpt: (§1) On the basis of sequence information registered in GenBank, genes respectively encoding 370 human olfactory receptors shown in Tables 1-1 and 1-2 and genes respectively encoding the human olfactory receptors OR5AN1, OR10G4 and OR9Q2 (respectively set forth in SEQ ID NOS: 1, 3 and 5) were cloned. Each of the genes was cloned by the PCR using human genomic DNA person (G1521: Promega) as a template. Each gene amplified by the PCR was incorporated into a pENTR vector (Invitrogen) in accordance with the instruction, and was recombined to NotI and AscI sites produced downstream from a Flag-Rho tag sequence on a pME18S vector by using NotI and AscI sites present on the pENTR vector.
(§2) In 1) of Example 1, HEK293 cells on which the 370 human olfactory receptors were respectively expressed were produced. A reaction solution having a composition shown in Table 2 was prepared and allowed to stand still in a clean bench for 15 minutes, and the resultant was added by 4.4 μL per well in a 384-well plate (BioCoat). Subsequently, the HEK293 cells (20×10^4 cells/cm^2) were seeded by 40 μL per well, and the resultant was cultured for 24 hours in an incubator kept at 37° C. and 5% CO2.
(§3) In 2) of Example 1 and Examples 2 and 3, HEK293 cells in which the human olfactory receptor OR5AN1, OR10G4, OR9Q2 or OR1A1 was expressed were produced. A reaction solution having a composition shown in Table 3 was prepared and allowed to stand still in a clean bench for 15 minutes, and the resultant was added by 10 μL per well in a 96-well plate (BioCoat). Subsequently, the HEK293 cells (3×10^5 cells/cm^2) were seeded by 90 μL per well, and the resultant was cultured for 24 hours in an incubator kept at 37° C. and 5% CO2. Cells obtained under conditions for not expressing the olfactory receptor (Mock) were also prepared to be used as a control, and were used similarly in an experiment.
(§4) The olfactory receptor expressed on the HEK293 cells increases the intracellular cAMP amount by activating adenylate cyclase in conjugation with intracellular Gαs. In the measurement of odor response in this study, luciferase reporter gene assay for monitoring the increase of the intracellular cAMP amount as a luminescence value derived from a firefly luciferase gene (fluc2P-CRE-hygro) was employed. Besides, a fused Renilla luciferase (hRluc-CMV) gene was simultaneously transferred downstream of the CMV promoter, so as to be used as an internal standard for correcting the gene transfer efficiency or an error in the number of cells. For measuring the activity of the luciferase, Dual-Glo(™) Luciferase Assay System (Promega) was used, and the measurement was performed in accordance with the operation instruction of the product. Under each of various stimulation conditions, a value fLuc/hRluc obtained by dividing a firefly luciferase-derived luminescence value by a Renilla luciferase-derived luminescence value was calculated. A value obtained by dividing a value fLuc/hRluc induced by stimulation with an odorous substance by a value fLuc/hRluc of a cell not stimulated with the odorous substance was obtained as fold increase, which was used as an index of the response intensity. A dose-response curve was analyzed using Graph Pad Prism.
(§5) The medium was removed from each of the cultures of the olfactory receptor expressing cells produced according to Reference Example 1, and an odorous substance (muscone, guaiacol or p-cresol) was added thereto. A DMEM medium (Nacalai) containing muscone or guaiacol was added to a 384-well plate containing the culture by 30 μL per well (to a final concentration of muscone of 100 μM and of guaiacol of 1 mM). Alternatively, a CD293 medium (Invitrogen) containing p-cresol was added to a 96-well plate containing the culture by 75 μL per well (to a final concentration of 1 mM). […]

[2] = system: odor of p-cresyl isobutyrate; test: Sensory test of cross-adaptation, target odor p-cresyl isobutyrate; format: in vivo, human; conditions: panelists
[3] = system: odor of p-cresyl acetate; test: Sensory test of cross-adaptation, target odor p-cresyl acetate; format: in vivo, human; conditions: panelists
[4] = system: odor of p-methyl quinoline; test: Sensory test of cross-adaptation, target odor p-methyl quinoline; format: in vivo, human; conditions: panelists
[5] = target: T2, OR5AN1 (Homo sapiens, UniProt Q8NGI8); test: Luciferase reporter gene assay, OR5AN1-expressing HEK293 cells; format: cell-based
T2 construct: expressed in transfected cells; host or cells: HEK293
T2 sequence (Q8NGI8 1-311): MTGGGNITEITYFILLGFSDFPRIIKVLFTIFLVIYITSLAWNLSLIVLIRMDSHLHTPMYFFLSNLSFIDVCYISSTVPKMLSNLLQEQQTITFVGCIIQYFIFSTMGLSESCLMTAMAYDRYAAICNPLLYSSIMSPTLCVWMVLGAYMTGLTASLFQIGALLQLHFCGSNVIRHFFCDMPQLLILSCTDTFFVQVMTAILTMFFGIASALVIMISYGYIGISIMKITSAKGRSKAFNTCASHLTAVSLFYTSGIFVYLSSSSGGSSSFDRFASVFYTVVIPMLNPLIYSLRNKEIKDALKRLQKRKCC
Excerpt: as §1, §2, §3, §4, §5

C[C@@H]1CCCCCCCCCCCCC(=O)C1 [muscone, (R)-3-methyl-1-cyclopentadecanone]
responsiveness of OR9Q2 (fold increase) [1]: do not have responsiveness
cross-adaptation of p-cresyl isobutyrate odor induced by test substance [2]: did not induce the cross-adaptation
cross-adaptation of p-cresyl acetate odor induced by test substance [3]: did not induce the cross-adaptation
cross-adaptation of p-methyl quinoline odor induced by test substance [4]: did not induce the cross-adaptation
activation of OR5AN1 response (fold increase) ([5]; 0.3 μM to 100 μM, vs Mock cells, FIG. 3): activating the response
responsiveness of OR5AN1 among 370 olfactory receptors (response intensity, fold increase) ([5]; screen of 370 human olfactory receptors, muscone 100 μM, FIG. 1): highest responsiveness
